# According to PubChem BioAssay AID608 (Sanford-Burnham Center for Chemical Genomics, 2007):
# Active and inactive are the calls of the source. The rule behind the calls is not given here.
# Molecular target: Peptidyl-prolyl cis-trans isomerase FKBP1A (Homo sapiens) (UniProt P62942)
# Experiment: FKBP12 binders, biophysical, NMR detection (AID 608)
# Conditions: NMR binding, purified FKBP12
# Peptidyl-prolyl cis-trans isomerase FKBP1A (Homo sapiens), sequence (P62942 whole entry, looked up): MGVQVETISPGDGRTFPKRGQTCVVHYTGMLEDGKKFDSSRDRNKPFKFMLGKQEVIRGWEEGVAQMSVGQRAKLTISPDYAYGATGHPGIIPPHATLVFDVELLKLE
row,Compound,Kd
1,O=C(CSc1ccc(C(F)(F)F)cc1[N+](=O)[O-])N1CCOCC1,0.448 mM
2,OC1CSc2ncnn2C1 (stereo not drawn),> 4 mM (inactive)
3,CNC(=O)N1CCN(C(=O)NC)CC1,> 4 mM (inactive)
4,CC(=O)c1sc2nc(N)nn2c1C,> 4 mM (inactive)
5,CSc1cc(C)[nH]c(=O)n1,> 4 mM (inactive)
6,COc1cc2c(cc1-c1cc3cc4ccoc4cc3oc1=O)OCO2,> 4 mM (inactive)
7,Cc1nnsc1-c1onc(C)c1C(=O)O,> 4 mM (inactive)
8,Cc1occc1C(=O)Nc1cc(C(C)(C)C)on1,> 4 mM (inactive)
9,COc1ccc(C2(CN)CCOCC2)cc1OC,> 4 mM (inactive)
10,O=c1c2ccccc2nc2n1CCC2O (stereo not drawn),> 4 mM (inactive)
11,CC(=O)Nc1ccc(C(=O)NC2=NCCS2)cc1,> 4 mM (inactive)
12,Cc1cc(C)nc(/N=C(/N)N2CCC(C(N)=O)CC2)n1,> 4 mM (inactive)
13,CCC(=O)Oc1ccc(N2C(=O)CCC2=O)cc1,> 4 mM (inactive)
14,O=C(Nc1cccc(Cl)c1Cl)c1ccccc1OCC(=O)N1CCOCC1,> 4 mM (inactive)
15,CC(=O)NC(=S)Nc1ccc(N(C)C(C)=O)cc1,> 4 mM (inactive)
16,O=S1(=O)CCC(NC(=S)Nc2ccccc2)C1 (stereo not drawn),> 4 mM (inactive)
17,CC(=O)Oc1ccc(/C=C/c2cc(OC(C)=O)cc(OC(C)=O)c2)cc1,> 4 mM (inactive)
18,Cc1ncoc1C(=O)Nc1ccccc1C(N)=O,> 4 mM (inactive)
19,CC(=O)O[C@@H]1CC2C(C)(C)[C@H](O)C=C[C@]2(C)C2CC[C@@]3(C)[C@H](c4ccoc4)OC(=O)C4OC43[C@@]21C (stereo partly drawn),> 4 mM (inactive)
20,NC(=O)c1ccc(NC(=O)c2cccnc2)cc1,> 4 mM (inactive)
21,Nc1nnc(SCc2ccc3c(c2)OCO3)s1,> 4 mM (inactive)
22,Cc1ccc(S(=O)(=O)CC(=O)N2CCOCC2)cc1,0.095 mM
23,NC1=NCc2ccccc21,> 4 mM (inactive)

row,Compound,Kd
1,NCc1ccc2c(c1)CCO2,> 4 mM (inactive)
2,O=C(Nc1ccccn1)c1cc(-n2cnnc2)ccc1Cl,> 4 mM (inactive)
3,CCC(C)C(=O)O[C@H]1[C@H](O)C2C(CN3CC(C)CCC3[C@@]2(C)O)C2C[C@]34O[C@]5(O)C(OC(=O)C(C)(O)CC)CC[C@@]3(C)C5C(OC(C)=O)[C@@H](OC(C)=O)C4[C@@]21O (stereo partly drawn),> 4 mM (inactive)
4,O=c1[nH]c(=S)[nH]c2c1CCC2,> 4 mM (inactive)
5,CC(=O)Nc1cccc(NC(=O)c2ccco2)c1,> 4 mM (inactive)
6,CCN=Cc1c(O)n(-c2ccccc2C)c(=O)[nH]c1=O,> 4 mM (inactive)
7,CC(C)NC(=S)NCc1cnn(C)c1,> 4 mM (inactive)
8,Cn1ncc(CO)c1-c1ccccc1,> 4 mM (inactive)
9,OC1(c2ccc(Cl)cc2)CCNCC1,> 4 mM (inactive)
10,O=C(O)c1ccc(Nc2nncc(=O)[nH]2)cc1,> 4 mM (inactive)
11,NC(=O)c1ccc(C(N)=O)c(-c2ccccc2)c1,> 4 mM (inactive)
12,C/C(N)=C/C(=O)N1CCCCC1,> 4 mM (inactive)
13,CC(=O)NC(O)C(=O)c1cccs1 (stereo not drawn),> 4 mM (inactive)
14,CSc1nnc2c(n1)OC(C)=Nc1ccccc1-2,> 4 mM (inactive)
15,O=C(O)c1cnn2ccccc12,> 4 mM (inactive)
16,CNC(=S)Nc1ccc2c(c1)OCO2,> 4 mM (inactive)
17,O=C(O)CNS(=O)(=O)c1cccs1,> 4 mM (inactive)
18,Nc1ccncc1,> 4 mM (inactive)
19,c1cc(CNc2ccc3c(c2)OCCO3)ccn1,> 4 mM (inactive)
20,NC(=O)CCn1cnc2ccccc21,> 4 mM (inactive)
21,O=C(Nc1nnc(-c2ccco2)o1)C1=COCCO1,> 4 mM (inactive)
22,O=C(O)c1cc2ccccc2[nH]1,> 4 mM (inactive)
23,OC1CC(c2ccccc2)NC2(CCCC2)C1 (stereo not drawn),> 4 mM (inactive)

row,Compound,Kd
1,Nc1nnc(SCc2cccnc2)s1,> 4 mM (inactive)
2,O=C(CSc1ncn[nH]1)c1ccc2c(c1)OCO2,> 4 mM (inactive)
3,COc1cc2c(cc1OC)[C@@H]1C(=O)c3ccc4oc(C(C)C)cc4c3O[C@@H]1CO2,> 4 mM (inactive)
4,Cc1ccc(-n2ncc(C#N)c2/N=C/N(C)C)cc1,> 4 mM (inactive)
5,COC(=O)CCSCC(=O)Nc1nccs1,> 4 mM (inactive)
6,CC(=O)Nc1ccc(NC(C)=O)c(C(F)(F)F)c1,> 4 mM (inactive)
7,CC(=O)Oc1cc(OC(C)=O)c2c(c1)O[C@H](c1ccc(OC(C)=O)c(OC(C)=O)c1)[C@H](OC(C)=O)C2,> 4 mM (inactive)
8,CCCNC(=O)CSc1nnc(C)s1,> 4 mM (inactive)
9,O=C(Cc1ccccc1)Nc1c[nH]c(=O)[nH]c1=O,> 4 mM (inactive)
10,COc1ccc(N2C(=O)CCC2=O)c(OC)c1,> 4 mM (inactive)
11,O=C(c1ccccc1)c1ccccc1C(=O)N1CCCC1,> 4 mM (inactive)
12,CSc1nc(=O)[nH]c2c1CCC2,> 4 mM (inactive)
13,COc1ccc(/C=C2/N=C(N)SC2=O)cc1,> 4 mM (inactive)
14,O=C(CO)N/N=C/c1ccccc1F,> 4 mM (inactive)
15,NC(c1ccccc1)c1ccccn1 (stereo not drawn),> 4 mM (inactive)
16,NC(=O)Cn1nnc(-c2ccc(C(F)(F)F)cc2)n1,> 4 mM (inactive)
17,CC(C)/C(O)=C1/C(=O)O[C@@H](c2ccoc2)[C@]2(C)C(O)[C@@H](O)[C@@]34OC5(C)OC67CC(C)(C(O)[C@]6(O)[C@@H](O)[C@]3(O5)C12)[C@H](CC(=O)O)[C@]74C (stereo partly drawn),> 4 mM (inactive)
18,O=C1C2CC=CCC2C(=O)N1c1ccccc1O (stereo not drawn),> 4 mM (inactive)
19,CC(=O)O[C@H]1C[C@@H](OC(C)=O)C(C)(C)C2C[C@@H](OC(C)=O)[C@]3(C)C([C@H](OC(C)=O)C[C@@]4(C)[C@H](c5ccoc5)OC(=O)[C@H]5O[C@]543)[C@]21C (stereo partly drawn),> 4 mM (inactive)
20,CC(C)=CCC[C@](C)(O)C1CC=C(C)CC1 (stereo partly drawn),> 4 mM (inactive)
21,OCc1csc(-c2ccccc2)n1,> 4 mM (inactive)
22,Nc1ccc(Oc2ccccc2)nc1,> 4 mM (inactive)
23,COn1c(=O)c(C)[n+]([O-])c2ccccc21,> 4 mM (inactive)

row,Compound,Kd
1,O=C1C=C(Nc2ccc(O)cc2)c2ccccc2C1=O,> 4 mM (inactive)
2,O=C(O)c1cncc(-c2cccs2)c1,> 4 mM (inactive)
3,Nc1nc(N)nc(N2C(=O)c3ccccc3C2=O)n1,> 4 mM (inactive)
4,COc1ccc(-c2oc3cc(O[C@H]4O[C@H](CO)[C@@H](O)[C@H](O)[C@H]4O)c(OC)c(O)c3c(=O)c2OC)cc1O,> 4 mM (inactive)
5,O=C(/C=C/c1ccc(O)cc1)c1ccc(O)cc1O,> 4 mM (inactive)
6,CC(=O)N1CC2(C)CN(C(C)=O)CC(C)(C1)C2,> 4 mM (inactive)
7,C/C=C(/C)C(=O)O[C@H]1CC[C@@]2(C)[C@@H]3CC[C@H]4[C@]5(O)C[C@H](O)[C@@]6(O)[C@@H](CN7C[C@@H](C)CC[C@H]7[C@@]6(C)O)[C@]5(O)C[C@@]42OC13O,> 4 mM (inactive)
8,COc1cccc(C(=O)Nc2c(C)n[nH]c2C)c1,> 4 mM (inactive)
9,CC(CCC(=O)O)[C@H]1CCC2C3C(C[C@H](O)[C@@]21C)[C@@]1(C)CC[C@@H](O)C[C@H]1C[C@H]3O (stereo partly drawn),> 4 mM (inactive)
10,COc1cccc(Oc2ccc(N)cc2)c1,> 4 mM (inactive)
11,Cc1cc(N)n(-c2ccccc2)n1,> 4 mM (inactive)
12,C/C=C1\[C@H]2C=C(C)C[C@]1(N)c1ccc(=O)[nH]c1C2,> 4 mM (inactive)
13,COC(=O)[C@@]1(C)CCC[C@]2(C)c3ccc(O)c(C(C)C)c3CCC12 (stereo partly drawn),> 4 mM (inactive)
14,CCOC(=O)N1CCCC1c1cccnc1 (stereo not drawn),> 4 mM (inactive)
15,O=C1CC(=O)N(Cc2ccco2)C(=S)N1,> 4 mM (inactive)
16,O=C(c1sc2cccc(Cl)c2c1Cl)N1CCOCC1,inactive
17,COCC(=O)OCn1nnc2ccccc2c1=O,> 4 mM (inactive)
18,Clc1ccc(-c2noc(CN3CCCC3)n2)cc1,> 4 mM (inactive)
19,Cc1cc(C(=O)N2CCN(c3ncccn3)CC2)c(C)o1,> 4 mM (inactive)
20,COC(=O)c1c(OC)cc2c(c1C)Oc1c(Cl)c(O)c(Cl)c(C)c1C(=O)O2,> 4 mM (inactive)
21,NC1CS(=O)(=O)CC1O (stereo not drawn),> 4 mM (inactive)
22,O=C(O)CN1C(=O)c2cccc([N+](=O)[O-])c2C1=O,> 4 mM (inactive)
23,CN(C)C(=O)c1ccc(-c2n[nH]c(=O)c3ccccc23)cc1,> 4 mM (inactive)

row,Compound,Kd
1,C(=N\n1cnnc1)/c1cccs1,> 4 mM (inactive)
2,Cc1cc(C(=O)Nc2cccnc2)cs1,> 4 mM (inactive)
3,CNC(=S)N1CCN(C(=O)c2ccco2)CC1,> 4 mM (inactive)
4,Cc1cc(SCC(=O)c2ccccc2)nc(=O)[nH]1,> 4 mM (inactive)
5,OC1CCNC2CCCCC12 (stereo not drawn),> 4 mM (inactive)
6,CCn1nccc1C(=O)Nc1ccc(Cl)cc1Cl,> 4 mM (inactive)
7,CC1CN(Cc2ccccn2)CCC1=O (stereo not drawn),> 4 mM (inactive)
8,COC(=O)/C(C)=C\CC12OC(C)(C)C3CC(C=C4C(=O)c5c(OC)c6c(c(CC=C(C)C)c5OC431)OC(C)(CCC=C(C)C)C=C6)C2=O (stereo not drawn),> 4 mM (inactive)
9,COc1c(-c2ccccc2)oc2c(OC)cccc2c1=O,> 4 mM (inactive)
10,CC(=O)Oc1ccc2c(c1C(C)C)CCC1C(C)(C)CCC[C@]21C (stereo partly drawn),> 4 mM (inactive)
11,COc1cc2cc[n+]3cc4c(OC)c(OC)ccc4cc3c2cc1OC,> 4 mM (inactive)
12,O=C(O)c1sccc1-n1cccc1,> 4 mM (inactive)
13,Nc1cccc(-c2cnco2)c1,> 4 mM (inactive)
14,Cc1nnc(NCCN2CCOCC2)[nH]c1=O,> 4 mM (inactive)
15,COc1cc2c3cc1Oc1cc(ccc1O)C[C@@H]1c4c(cc(OC)c(O)c4Oc4ccc(cc4)C[C@@H]3N(C)CC2)CC[N+]1(C)C,> 4 mM (inactive)
16,CC(=O)N(c1ccccc1)C1C=CS(=O)(=O)C1 (stereo not drawn),> 4 mM (inactive)
17,Nc1nc(-c2ccncc2)cs1,> 4 mM (inactive)
18,O=C(NC1=NCCS1)c1ccc2snnc2c1,> 4 mM (inactive)
19,CN1CCN(S(=O)(=O)c2ccc(=O)[nH]c2)CC1,> 4 mM (inactive)
20,c1ccc(-c2noc(-c3cccnc3)n2)nc1,> 4 mM (inactive)
21,CN(C)c1ccc(C2CC(=O)CC(=O)C2)cc1,> 4 mM (inactive)
